Assay results published in ChEMBL document CHEMBL3272279, “Synthesis of 5-chloro-3'-nitro-4'-substituted salicylanilides, a new series of anthelmintic and antimicrobial agents” (1977).
Converted amounts (≈) assume the structure as drawn. The source made the active and inactive calls. No cut-off for these calls is given here.

What was measured:
Rodentolepis nana [1] = assay: Cestodicidal activity against Hymenolepis nana infected in po dosed rat administered as single dose; assay type: functional
Staphylococcus aureus = assay: Antimicrobial activity against penicillin-resistant Staphylococcus aureus assessed as growth inhibition after 24 hrs by two-fold serial dilution technique; assay type: functional
[2] = tested on: Agrobacterium tumefaciens; assay: Antimicrobial activity against Agrobacterium tumefaciens assessed as growth inhibition after 24 hrs by two-fold serial dilution technique; assay type: functional
Cryptococcus neoformans = assay: Antimicrobial activity against Cryptococcus neoformans assessed as growth inhibition after 24 hrs by two-fold serial dilution technique; assay type: functional
[3] = tested on: Trichophyton mentagrophytes; assay: Antimicrobial activity against Trichophyton mentagrophytes assessed as growth inhibition after 24 hrs by two-fold serial dilution technique; assay type: functional
Microsporum canis = assay: Antimicrobial activity against Microsporum canis assessed as growth inhibition after 24 hrs by two-fold serial dilution technique; assay type: functional
Aspergillus niger = assay: Antimicrobial activity against Aspergillus niger assessed as growth inhibition after 24 hrs by two-fold serial dilution technique; assay type: functional
Salmonella typhi = assay: Antimicrobial activity against Salmonella typhi assessed as growth inhibition after 24 hrs by two-fold serial dilution technique; assay type: functional, organism-based; details: Salmonella enterica subsp. enterica serovar Typhi
Escherichia coli = assay: Antimicrobial activity against Escherichia coli assessed as growth inhibition after 24 hrs by two-fold serial dilution technique; assay type: functional, organism-based
Bacillus subtilis = assay: Antimicrobial activity against Bacillus subtilis assessed as growth inhibition after 24 hrs by two-fold serial dilution technique; assay type: functional, organism-based
Candida albicans [4] = assay: Antimicrobial activity against Candida albicans assessed as growth inhibition after 24 hrs by two-fold serial dilution technique; assay type: functional
Candida albicans [5] = assay: Antimicrobial activity against Candida albicans assessed as growth inhibition at 0.39 ug/ml after 24 hrs by two-fold serial dilution technique; assay type: functional, organism-based
Rodentolepis nana [6] = assay: Cestodicidal activity against Hymenolepis nana infected in rat at 250 mg/kg, po administered as single dose; assay type: functional, organism-based; parameters: dose 250 mg/kg

Row | Structure (SMILES) | MED98 (Rodentolepis nana [1]) [mg/kg] | MIC (Staphylococcus aureus) [µg/mL] | MIC [2] [µg/mL] | MIC (Cryptococcus neoformans) [µg/mL] | MIC [3] [µg/mL] | MIC (Microsporum canis) [µg/mL] | MIC (Aspergillus niger) [µg/mL] | growth inhibition (GI) (Salmonella typhi) | growth inhibition (GI) (Escherichia coli) | growth inhibition (GI) (Bacillus subtilis) | growth inhibition (GI) (Candida albicans [4]) | growth inhibition (GI) (Candida albicans [5]) | Activity (Rodentolepis nana [6])
1 | O=C(Nc1ccc(N2CCC(O)(c3ccccc3)CC2)c([N+](=O)[O-])c1)c1cc(Cl)ccc1O | 250 | 0.39 (≈ 0.833 µM) | 25 (≈ 53.4 µM) | 3.12 (≈ 6.68 µM) | 6.25 (≈ 13.4 µM) | 6.25 (≈ 13.4 µM) | > 100 | inactive | inactive | inactive | inactive | – | –
2 | C[C@@H]1[C@H](O)[C@@H](C)/C=C/C=C/C=C/C=C/C=C/C=C/C=C/[C@H](O[C@@H]2O[C@H](C)[C@@H](O)[C@H](N)[C@@H]2O)C[C@@H]2O[C@](O)(C[C@@H](O)C[C@@H](O)[C@H](O)CC[C@@H](O)C[C@@H](O)CC(=O)O[C@H]1C)C[C@H](O)[C@H]2C(=O)O [AMPHOTERICIN B] | – | – | – | 0.78 (≈ 0.844 µM) | 1.56 (≈ 1.69 µM) | 1.56 (≈ 1.69 µM) | 12.5 (≈ 13.5 µM) | – | – | – | – | Active | –
3 | CC1CCCCN1c1ccc(NC(=O)c2cc(Cl)ccc2O)cc1[N+](=O)[O-] (stereo not given) | 50 | 0.0975 (≈ 0.25 µM) | > 100 | > 100 | 12.5 (≈ 32.1 µM) | 6.25 (≈ 16 µM) | > 100 | inactive | inactive | inactive | inactive | – | –
4 | O=C(Nc1ccc(NC2CCCCC2)c([N+](=O)[O-])c1)c1cc(Cl)ccc1O | 30 | 0.0975 (≈ 0.25 µM) | > 100 | 25 (≈ 64.1 µM) | 3.12 (≈ 8.02 µM) | 3.12 (≈ 8.02 µM) | 25 (≈ 64.1 µM) | inactive | inactive | inactive | inactive | – | –
5 | CCC1CCCCN1c1ccc(NC(=O)c2cc(Cl)ccc2O)cc1[N+](=O)[O-] (stereo not given) | 100 | 0.39 (≈ 0.966 µM) | > 100 | 25 (≈ 61.9 µM) | 6.25 (≈ 15.5 µM) | 6.25 (≈ 15.5 µM) | > 100 | inactive | inactive | inactive | inactive | – | –
6 | CC1CCCN(c2ccc(NC(=O)c3cc(Cl)ccc3O)cc2[N+](=O)[O-])C1 (stereo not given) | 250 | 0.39 (≈ 1 µM) | > 100 | 25 (≈ 64.1 µM) | 6.25 (≈ 16 µM) | 3.12 (≈ 8.02 µM) | > 100 | inactive | inactive | inactive | inactive | – | –
7 | Cc1ccc(Oc2ccc(NC(=O)c3cc(Cl)ccc3O)cc2[N+](=O)[O-])cc1 | – | 0.39 (≈ 0.978 µM) | > 100 | > 100 | 1.56 (≈ 3.91 µM) | 0.78 (≈ 1.96 µM) | 6.25 (≈ 15.7 µM) | inactive | inactive | inactive | inactive | – | inactive
8 | O=C(Nc1ccc(Oc2ccc(Cl)cc2)c([N+](=O)[O-])c1)c1cc(Cl)ccc1O | – | 0.78 (≈ 1.86 µM) | 25 (≈ 59.6 µM) | > 100 | 1.56 (≈ 3.72 µM) | 0.78 (≈ 1.86 µM) | 25 (≈ 59.6 µM) | inactive | inactive | inactive | inactive | – | inactive
9 | O=C(Nc1ccc(N2CCC(c3ccccc3)CC2)c([N+](=O)[O-])c1)c1cc(Cl)ccc1O | 250 | 0.39 (≈ 0.863 µM) | 25 (≈ 55.3 µM) | 3.12 (≈ 6.92 µM) | 6.25 (≈ 13.8 µM) | 6.25 (≈ 13.8 µM) | > 100 | inactive | inactive | inactive | inactive | – | –
10 | CCCCN(CCCC)c1ccc(NC(=O)c2cc(Cl)ccc2O)cc1[N+](=O)[O-] | – | > 100 | > 100 | > 100 | > 100 | 25 (≈ 59.5 µM) | 25 (≈ 59.5 µM) | inactive | inactive | inactive | inactive | – | inactive
11 | O=C(Nc1ccc([N+](=O)[O-])cc1Cl)c1cc(Cl)ccc1O [NICLOSAMIDE] | 50 | – | – | – | – | – | – | – | – | – | – | – | –
